Laboratory results taken from patent publication US9522907B2, “Anticancer agent and process for the preparation thereof” (COUNCIL OF SCIENTIFIC & INDUSTRIAL RESEARCH, priority 2014, dated 2016).

Assays:
HCC-2998 = assay: NCI in vitro cytotoxicity, HCC-2998; conditions: Homo sapiens
Source text: (§1) For these compounds results are expressed as growth inhibition (GI50) values as per NCI protocol.

HL-60 (TB) = assay: NCI in vitro cytotoxicity, HL-60 (TB); format: cell-based; conditions: Homo sapiens, Leukemia
CAKI-1 = assay: NCI in vitro cytotoxicity, CAKI-1; conditions: Homo sapiens
Source text: as §1

OVCAR-8 = assay: NCI in vitro cytotoxicity, OVCAR-8; conditions: Homo sapiens
Source text: as §1

OVCAR-4 = assay: NCI in vitro cytotoxicity, OVCAR-4; conditions: Homo sapiens
Source text: as §1

NCI-H23 = assay: NCI in vitro cytotoxicity, NCI-H23; conditions: Homo sapiens
Source text: as §1

SF-539 = assay: NCI in vitro cytotoxicity, SF-539; conditions: Homo sapiens
Source text: as §1

U251 = assay: NCI in vitro cytotoxicity, U251; conditions: Homo sapiens, U-251
Source text: as §1

ACHN = assay: NCI in vitro cytotoxicity, ACHN; conditions: Homo sapiens
Source text: as §1

SF-295 = assay: NCI in vitro cytotoxicity, SF-295; conditions: Homo sapiens
Source text: as §1

UO-31 = assay: NCI in vitro cytotoxicity, UO-31; conditions: Homo sapiens
Source text: as §1

NCI-H226 = assay: NCI in vitro cytotoxicity, NCI-H226; conditions: Homo sapiens
Source text: as §1

KM12 = assay: NCI in vitro cytotoxicity, KM12; conditions: Homo sapiens
Source text: as §1

MDA-MB-231/ATCC = assay: NCI in vitro cytotoxicity, MDA-MB-231/ATCC; conditions: Homo sapiens
Source text: as §1

IGROV 1 = assay: NCI in vitro cytotoxicity, IGROV 1; conditions: Homo sapiens
Source text: as §1

HT29 = assay: NCI in vitro cytotoxicity, HT29; conditions: Homo sapiens, HT-29
Source text: as §1

M14 = assay: NCI in vitro cytotoxicity, M14; conditions: Homo sapiens
Source text: as §1

MALME-3M = assay: NCI in vitro cytotoxicity, MALME-3M; conditions: Homo sapiens
Source text: as §1

MCF-7 = assay: NCI in vitro cytotoxicity, MCF-7; conditions: Homo sapiens, MCF7
Source text: as §1

UACC-257 = assay: NCI in vitro cytotoxicity, UACC-257; conditions: Homo sapiens
Source text: as §1

UACC-62 = assay: NCI in vitro cytotoxicity, UACC-62; conditions: Homo sapiens
Source text: as §1

RXF 393 = assay: NCI in vitro cytotoxicity, RXF 393; conditions: Homo sapiens
Source text: as §1

HOP-62 = assay: NCI in vitro cytotoxicity, HOP-62; conditions: Homo sapiens
Source text: as §1

SK-MEL-28 = assay: NCI in vitro cytotoxicity, SK-MEL-28; conditions: Homo sapiens
Source text: as §1

SNB-19 = assay: NCI in vitro cytotoxicity, SNB-19; conditions: Homo sapiens
Source text: as §1

SR (leukemia cell line) = assay: NCI in vitro cytotoxicity, SR; conditions: Homo sapiens
Source text: as §1

SNB-75 = assay: NCI in vitro cytotoxicity, SNB-75; conditions: Homo sapiens
Source text: as §1

RPMI-8226 = assay: NCI in vitro cytotoxicity, RPMI-8226; conditions: Homo sapiens
Source text: as §1

SK-MEL-5 = assay: NCI in vitro cytotoxicity, SK-MEL-5; conditions: Homo sapiens
Source text: as §1

MDA-MB-468 = assay: NCI in vitro cytotoxicity, MDA-MB-468; conditions: Homo sapiens
Source text: as §1

A498 = assay: NCI in vitro cytotoxicity, A498; conditions: Homo sapiens
Source text: as §1

NCI/ADR-RES = assay: NCI in vitro cytotoxicity, NCI/ADR-RES; conditions: Homo sapiens
Source text: as §1

SF-268 = assay: NCI in vitro cytotoxicity, SF-268; conditions: Homo sapiens
Source text: as §1

MDA-MB-435 = assay: NCI in vitro cytotoxicity, MDA-MB-435; conditions: Homo sapiens
Source text: as §1

DU-145 = assay: NCI in vitro cytotoxicity, DU-145; conditions: Homo sapiens
Source text: as §1

CCRF-CEM = assay: NCI in vitro cytotoxicity, CCRF-CEM; conditions: Homo sapiens
Source text: as §1

MOLT-4 = assay: NCI in vitro cytotoxicity, MOLT-4; conditions: Homo sapiens
Source text: as §1

PC-3 = assay: NCI in vitro cytotoxicity, PC-3; conditions: Homo sapiens
Source text: as §1

HCT-15 = assay: NCI in vitro cytotoxicity, HCT-15; conditions: Homo sapiens
Source text: as §1

T-47D = assay: NCI in vitro cytotoxicity, T-47D; conditions: Homo sapiens, T47D
Source text: as §1

NCI-H460 = assay: NCI in vitro cytotoxicity, NCI-H460; conditions: Homo sapiens
Source text: as §1

SN 12C = assay: NCI in vitro cytotoxicity, SN 12C; conditions: Homo sapiens, SN12C
Source text: as §1

Work on COc1cc(-c2nc(-c3ccc(-c4nc5cc(F)ccc5[nH]4)cc3)no2)cc(OC)c1OC [2i, 3-(4-(5-Fluoro-1H-benzo[d]imidazol-2-yl)phenyl)-5-(3,4,5-trimethoxyphenyl)-1,2,4-oxadiazole] yielded a GI50 (HCC-2998) of 6.13 µM, a GI50 (HL-60 (TB)) of 2.24 µM and a GI50 (CAKI-1) of 2.76 µM. It also gave a GI50 (OVCAR-8) of 2.36 µM, a GI50 (OVCAR-4) of 2.82 µM and a GI50 (NCI-H23) of 2.5 µM. The GI50 (SF-539) was 3.37 µM, the GI50 (U251) was 3.03 µM and the GI50 (ACHN) was 3.72 µM. It also gave a GI50 (SF-295) of 2.31 µM, a GI50 (UO-31) of 2.51 µM and a GI50 (NCI-H226) of 2.72 µM. For the same molecule, the GI50 (KM12) was 3.08 µM, the GI50 (MDA-MB-231/ATCC) was 2.39 µM and the GI50 (IGROV 1) was 3.81 µM. It also gave a GI50 (HT29) of 3.69 µM, a GI50 (M14) of 3.23 µM and a GI50 (MALME-3M) of 2.32 µM. It also gave a GI50 (MCF-7) of 2.88 µM, a GI50 (UACC-257) of 3.7 µM and a GI50 (UACC-62) of 2.35 µM. The GI50 (RXF 393) was 1.9 µM, the GI50 (HOP-62) was 3.21 µM and the GI50 (SK-MEL-28) was 3.78 µM. For the same molecule, the GI50 (SNB-19) was 5.62 µM, the GI50 (SR (leukemia cell line)) was 2.98 µM and the GI50 (SNB-75) was 7.74 µM. For the same molecule, the GI50 (RPMI-8226) was 1.94 µM, the GI50 (SK-MEL-5) was 2.22 µM and the GI50 (MDA-MB-468) was 3.01 µM. For the same molecule, the GI50 (A498) was 4.19 µM, the GI50 (NCI/ADR-RES) was 2.49 µM and the GI50 (SF-268) was 3.99 µM. The GI50 (MDA-MB-435) was 2.73 µM, the GI50 (DU-145) was 3.96 µM and the GI50 (CCRF-CEM) was 2.97 µM. The GI50 (MOLT-4) was 1.99 µM, the GI50 (PC-3) was 2.33 µM and the GI50 (HCT-15) was 3.15 µM. For the same molecule, the GI50 (T-47D) was 2.72 µM, the GI50 (NCI-H460) was 2.97 µM and the GI50 (SN 12C) was 3.59 µM.

In the case of COc1ccc2[nH]c(-c3ccc(-c4noc(-c5cc(OC)c(OC)c(OC)c5)n4)cc3)nc2c1 [5i, 3-(4-(5-Methoxy-1H-benzo[d]imidazol-2-yl)phenyl)-5-(3,4,5-trimethoxyphenyl)-1,2,4-oxadiazole], the GI50 (HCC-2998) is reported as 35.5 µM, the GI50 (HL-60 (TB)) is reported as 2.02 µM and the GI50 (CAKI-1) is reported as 23.4 µM. For the same molecule, the GI50 (OVCAR-8) was 4.93 µM, the GI50 (OVCAR-4) was 1.88 µM and the GI50 (NCI-H23) was 4.1 µM. It also gave a GI50 (SF-539) of 2 µM, a GI50 (U251) of 1.68 µM and a GI50 (ACHN) of 28.2 µM. It also gave a GI50 (SF-295) of 15 µM, a GI50 (UO-31) of 1.89 µM and a GI50 (NCI-H226) of 2.27 µM. It also gave a GI50 (KM12) of 7.52 µM, a GI50 (MDA-MB-231/ATCC) of 2.65 µM and a GI50 (IGROV 1) of 26.3 µM. The GI50 (HT29) was 2.7 µM, the GI50 (M14) was 5.47 µM and the GI50 (MALME-3M) was 1.67 µM. The GI50 (MCF-7) was 1.08 µM, the GI50 (UACC-257) was 17.1 µM and the GI50 (UACC-62) was 14 µM. For the same molecule, the GI50 (RXF 393) was 5.24 µM, the GI50 (HOP-62) was 4.44 µM and the GI50 (SK-MEL-28) was 9.59 µM. The GI50 (SNB-19) was 1.27 µM, the GI50 (SR (leukemia cell line)) was 0.71 µM and the GI50 (SNB-75) was 12.5 µM. It also gave a GI50 (RPMI-8226) of 6.02 µM, a GI50 (SK-MEL-5) of 3.25 µM and a GI50 (MDA-MB-468) of 6.54 µM. The GI50 (A498) was 28.5 µM, the GI50 (NCI/ADR-RES) was 3.32 µM and the GI50 (SF-268) was 7.13 µM. For the same molecule, the GI50 (MDA-MB-435) was 4.27 µM, the GI50 (DU-145) was 9.48 µM and the GI50 (CCRF-CEM) was 2.2 µM. The GI50 (MOLT-4) was 5.29 µM, the GI50 (PC-3) was 240 µM and the GI50 (HCT-15) was 1.49 µM. The GI50 (T-47D) was 14.7 µM, the GI50 (NCI-H460) was 4.6 µM and the GI50 (SN 12C) was 13.2 µM.
